In US10329270B2, “Heteroaryl compounds as BTK inhibitors and uses thereof” (Merck Patent GmbH, priority 2013, dated 2019) one finds IC50 data, which are given here for 34 molecules.

Structures are written as SMILES. Counter-ions that a name gives are not always drawn.

For the test, the target named is T1, full-length human BTK (Homo sapiens, UniProt Q06187).
T1 construct: 2.5× stocks of full-length human BTK (08-080); purchased CarnaBio USA, Inc., Natick, Mass; 08-080
T1 sequence (Q06187 whole entry): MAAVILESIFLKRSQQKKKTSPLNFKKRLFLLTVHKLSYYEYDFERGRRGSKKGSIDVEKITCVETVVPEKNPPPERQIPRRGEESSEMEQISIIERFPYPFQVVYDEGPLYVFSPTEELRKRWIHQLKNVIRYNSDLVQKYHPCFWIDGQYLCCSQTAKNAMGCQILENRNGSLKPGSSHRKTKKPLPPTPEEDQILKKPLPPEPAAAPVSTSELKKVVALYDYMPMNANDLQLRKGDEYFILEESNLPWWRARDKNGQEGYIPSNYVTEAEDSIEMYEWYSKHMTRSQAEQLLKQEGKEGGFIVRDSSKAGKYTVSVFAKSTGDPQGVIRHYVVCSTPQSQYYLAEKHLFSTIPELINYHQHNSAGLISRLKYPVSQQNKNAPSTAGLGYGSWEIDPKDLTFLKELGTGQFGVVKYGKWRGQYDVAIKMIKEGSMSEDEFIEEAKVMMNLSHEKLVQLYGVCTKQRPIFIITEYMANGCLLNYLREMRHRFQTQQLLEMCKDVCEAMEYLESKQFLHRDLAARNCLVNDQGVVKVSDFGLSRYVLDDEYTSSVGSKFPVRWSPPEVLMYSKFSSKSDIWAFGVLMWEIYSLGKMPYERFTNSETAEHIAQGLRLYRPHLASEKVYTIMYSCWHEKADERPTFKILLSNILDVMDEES
Briefly: Assay A: BTK IC50 Enzyme Assay (microfluidic off-chip mobility shift kinase assay). In kind it is biochemical. To be noted: full-length human BTK, kinKDR peptide substrate, incubated 90 min at 27 C; read-out: Assay A (Time Dependent BTK Enzyme Assay IC50). The procedure:
Assay A: BTK IC50 Enzyme Assay
The following describes a microfluidic, off-chip mobility shift kinase assay used to measure inherent potency of compounds against BTK enzyme. Compounds described by embodiments of the present invention were assayed using this protocol and the data from the same is recorded in Table 2 within the column labeled: “Time Dependent BTK Enzyme Assay IC50”.
Stopped reactions were monitored at −2 PSI, −3000 V/−700 V in a LabChip 3000 plate reader from Caliper Life Sciences, a PerkinElmer Company (Hopkinton, Mass.), and the activity was measured by off-chip mobility shift assay measuring the charge/mass difference between substrate and product resulting from peptide phosphorilation. IC50 and efficacy were determined by plotting log [Inhibitor] vs. % Activity in GeneData Screener (Basel, Switzerland). […] I<1 uM and II>1 uM.
As to `C=CC(=O)N[C@H]1CCN(c2nc(Oc3ccc(Oc4ccccc4)cc3)c(C(N)=O)cc2F)C1` [Compound 2, 6-((S)-3-Acryloylamino-pyrrolidin-1-yl)-5-fluoro-2-(4-phenoxy-phenoxy)-nicotinamide], the IC50 lay in the range of 100 to 1000 nM.
The same measure for `C=CC(=O)N[C@H]1CCN(c2nc(Nc3ccc(CCN4CCCC4)cc3)c(F)cc2C(N)=O)C1` [Compound 4, 2-((S)-3-Acryloylamino-pyrrolidin-1-yl)-5-fluoro-6-[4-(2-pyrrolidin-1-yl-ethyl)-phenylamino]-nicotinamide]: 100 to 1000 nM; for `C=CC(=O)N[C@H]1CCN(c2nc(Nc3ccc(C(=O)NC(C)(C)C)cc3)c(C(N)=O)cc2F)C1` [Compound 5, 6-((S)-3-Acryloylamino-pyrrolidin-1-yl)-2-(4-tert-butylcarbamoyl-phenylamino)-5-fluoro-nicotinamide]: 100 to 1000 nM; for `C=CC(=O)N[C@H]1CCN(c2nc(Nc3ccc(N4C[C@@H](C)O[C@@H](C)C4)nc3)c(C(N)=O)cc2F)C1` [Compound 6, 6-((S)-3-Acryloylamino-pyrrolidin-1-yl)-2-[6-(cis-2,6-dimethyl-morpholin-4-yl)-pyridin-3-ylamino]-5-fluoro-nicotinamide]: 1000 to 5000 nM.
As to `C=CC(=O)N1C[C@@H]2C[C@H]1CN2c1ccc(C(N)=O)c(Nc2ccc(C)nc2)n1` [Compound 8], the IC50 is under 100 nM.
The figure for `C=CC(=O)N1CC=C(c2ccc(C(N)=O)c(Nc3ccc(OC4CCN(C)CC4)cc3)n2)CC1` [Compound 13, 1′-Acryloyl-6-[4-(1-methyl-piperidin-4-yloxy)-phenylamino]-1′,2′,3′,6′-tetrahydro-[2,4′]bipyridinyl-5-carboxylic acid amide] is under 100 nM; for `C=CC(=O)N1C[C@@H]2C[C@H]1CN2c1ccc(C(N)=O)c(Nc2cccnc2)n1` [Compound 15, 6-((1S,4S)-5-acryloyl-2,5-diazabicyclo[2.2.1]heptan-2-yl)-2-(pyridin-3-ylamino)nicotinamide] it is under 100 nM.
The same measure for `C=CC(=O)N1CCC(c2ccc(C(N)=O)c(Nc3ccc(C(=O)N4CCN(C(=O)CCCCNC(=O)OC(C)(C)C)CC4)cc3)n2)CC1` [Compound 19]: under 100 nM.
The figure for `C=CC(=O)N[C@H]1CCN(c2ccc(C(N)=O)c(Nc3ccc(C(=O)N4CCCCC4)cc3)n2)C1` [Compound 21, 6-((S)-3-Acryloylamino-pyrrolidin-1-yl)-2-[4-(piperidine-1-carbonyl)-phenylamino]-nicotinamide] is under 100 nM; for `C=CC(=O)N[C@H]1CCN(c2ccc(C(N)=O)c(Nc3ccc(CCN4CCC(F)(F)C4)cc3)n2)C1` [Compound 24, 6-((S)-3-Acryloylamino-pyrrolidin-1-yl)-2-{4-[2-(3,3-difluoro-pyrrolidin-1-yl)-ethyl]-phenylamino}-nicotinamide] it is under 100 nM.
In the case of `C=CC(=O)N[C@H]1CCN(c2ccc(C(N)=O)c(Nc3ccc(N4CCC(F)(F)CC4)cc3)n2)C1` [Compound 25, 6-((S)-3-Acryloylamino-pyrrolidin-1-yl)-2-[4-(4,4-difluoro-piperidin-1-yl)-phenylamino]-nicotinamide], the IC50 was under 100 nM.
The figure for `C=CC(=O)N[C@H]1CCN(c2ccc(C(N)=O)c(Nc3ccc(C(=O)N(C)C)cc3)n2)C1` [Compound 26, 6-((S)-3-Acryloylamino-pyrrolidin-1-yl)-2-(4-dimethylcarbamoyl-phenylamino)-nicotinamide] is under 100 nM; for `C=CC(=O)N[C@H]1CCN(c2ccc(C(N)=O)c(Nc3ccc(N4CC(C)OC(C)C4)c(F)c3)n2)C1` (stereo partly drawn) [Compound 27, 6-((S)-3-Acryloylamino-pyrrolidin-1-yl)-2-[4-(2,6-dimethyl-morpholin-4-yl)-3-fluoro-phenylamino]-nicotinamide] it is under 100 nM.
The same measure for `C=CC(=O)N1CC=C(c2ccc(C(N)=O)c(Nc3ccc(C(=O)N4CCCCC4)cc3)n2)CC1` [Compound 28, 1′-Acryloyl-6-[4-(piperidine-1-carbonyl)-phenylamino]-1′,2′,3′,6′-tetrahydro-[2,4′]bipyridinyl-5-carboxylic acid amide]: under 100 nM.
For the molecule `C=CC(=O)N1CCC(c2ccc(C(N)=O)c(Nc3ccc(C(=O)N4CCN(C(=O)CCCCN)CC4)cc3)n2)CC1` [Compound 29, 1′-Acryloyl-6-{4-[4-(5-amino-pentanoyl)-piperazine-1-carbonyl]-phenylamino}-1′,2′,3′,4′,5′,6′-hexahydro-[2,4′]bipyridinyl-5-carboxylic acid amide hydrochloride], the IC50 is under 100 nM.
The same measure for `C=CC(=O)N1CCC(c2ccc(C(N)=O)c(Nc3ccc(N4C[C@@H](C)O[C@@H](C)C4)nc3)n2)CC1` [Compound 32, 1′-Acryloyl-6-[6-((2R,6S)-2,6-dimethyl-morpholin-4-yl)-pyridin-3-ylamino]-1′,2′,3′,4′,5′,6′-hexahydro-[2,4′]bipyridinyl-5-carboxylic acid amide]: under 100 nM; for `C=CC(=O)N[C@H]1CCN(c2ccc(C(N)=O)c(Nc3ccc(N4CC(C)OC(C)C4)cc3)n2)C1` (stereo partly drawn) [Compound 33, 6-((S)-3-Acryloylamino-pyrrolidin-1-yl)-2-[4-(2,6-dimethyl-morpholin-4-yl)-phenylamino]-nicotinamide]: under 100 nM.
The same measure for `C=CC(=O)N1CCN(c2ccc(C(N)=O)c(Nc3ccc(C)nc3)n2)CC1` [Compound 34]: under 100 nM; for `C=CC(=O)N[C@H]1CCN(c2ccc(C(N)=O)c(Nc3ccc(C(=O)N4CCOCC4)cc3)n2)C1` [Compound 35, 6-((S)-3-Acryloylamino-pyrrolidin-1-yl)-2-[4-(morpholine-4-carbonyl)-phenylamino]-nicotinamide]: under 100 nM.
The figure for `C=CC(=O)N[C@H]1CCN(c2ccc(C(N)=O)c(Nc3ccc(Oc4ccnc(C(=O)NC)c4)cc3)n2)C1` [Compound 36, 6-((S)-3-Acryloylamino-pyrrolidin-1-yl)-2-[4-(2-methylcarbamoyl-pyridin-4-yloxy)-phenylamino]-nicotinamide] is under 100 nM; for `C=CC(=O)N[C@H]1CCN(c2ccc(C(N)=O)c(Nc3ccc(N4CCCCC4)nc3)n2)C1` [Compound 39, (S)-6-(3-acrylamidopyrrolidin-1-yl)-2-((6-(piperidin-1-yl)pyridin-3-yl)amino)nicotinamide] it is under 100 nM.
As to `C=CC(=O)N[C@H]1CCN(c2ccc(C(N)=O)c(Nc3ccc(N4CCCC4)nc3)n2)C1` [Compound 41, 6-((S)-3-Acryloylamino-pyrrolidin-1-yl)-2-(6-pyrrolidin-1-yl-pyridin-3-ylamino)-nicotinamide], the IC50 was under 100 nM.
The figure for `C=CC(=O)N1CCCC(c2ccc(C(N)=O)c(Nc3ccc(CCN4CCCC4)cc3)n2)C1` (stereo not shown) [Compound 42, 1′-Acryloyl-6-[4-(2-pyrrolidin-1-yl-ethyl)-phenylamino]-1′,2′,3′,4′,5′,6′-hexahydro-[2,3′]bipyridinyl-5-carboxylic acid amide] is under 100 nM; for `C=CC(=O)N1CCN(c2ccc(C(N)=O)c(Nc3cccnc3)n2)CC1` [Compound 43] it is under 100 nM.
Regarding `C=CC(=O)N[C@@H]1CCN(c2ccc(C(N)=O)c(Nc3ccc(C(=O)N4CCOCC4)cc3)n2)C1` [Compound 47, 6-((R)-3-Acryloylamino-pyrrolidin-1-yl)-2-[4-(morpholine-4-carbonyl)-phenylamino]-nicotinamide], the IC50 was under 100 nM.
The figure for `C=CC(=O)N[C@H]1CCN(c2ccc(C(N)=O)c(Nc3ccc(F)cc3)n2)C1` [Compound 48, 6-((S)-3-Acryloylamino-pyrrolidin-1-yl)-2-(4-fluoro-phenylamino)-nicotinamide] is under 100 nM; for `C=CC(=O)N1CCC(c2ccc(C(N)=O)c(Nc3ccc(C)nc3)n2)CC1` [Compound 49] it is under 100 nM; for `C=CC(=O)N1CCC(Nc2ccc(C(N)=O)c(Nc3cccc(C)c3)n2)C1` (stereo not shown) [Compound 50, 6-(1-Acryloyl-pyrrolidin-3-ylamino)-2-m-tolylamino-nicotinamide] it is under 100 nM.
The figure for `C=CC(=O)N[C@H]1CCN(c2ccc(C(N)=O)c(Nc3cncc(F)c3)n2)C1` [Compound 51, 6-((S)-3-Acryloylamino-pyrrolidin-1-yl)-2-(5-fluoro-pyridin-3-ylamino)-nicotinamide] is under 100 nM; for `C=CC(=O)N[C@H]1CCN(c2ccc(C(N)=O)c(Nc3cccnc3)n2)C1` [Compound 52, 6-((S)-3-Acryloylamino-pyrrolidin-1-yl)-2-(pyridin-3-ylamino)-nicotinamide] it is under 100 nM.
The same measure for `C=CC(=O)N1CCC(c2ccc(C(N)=O)c(Nc3cccnc3)n2)CC1` [Compound 53, 1′-Acryloyl-6-(pyridin-3-ylamino)-1′,2′,3′,4′,5′,6′-hexahydro-[2,4′]bipyridinyl-5-carboxylic acid amide]: under 100 nM.
As to `C=CC(=O)N[C@H]1CCN(c2ccc(C(N)=O)c(Nc3ccc(Oc4ccccc4)cc3)n2)C1` [Compound 54, 6-((S)-3-Acryloylamino-pyrrolidin-1-yl)-2-(4-phenoxy-phenylamino)-nicotinamide], the IC50 is under 100 nM.
The same measure for `C=CC(=O)N[C@H]1CCN(c2ccc(C(N)=O)c(Nc3cncc(C)c3)n2)C1` [Compound 55, 6-((S)-3-Acryloylamino-pyrrolidin-1-yl)-2-(5-methyl-pyridin-3-ylamino)-nicotinamide]: under 100 nM; for `C=CC(=O)N[C@@H]1CCCN(c2ccc(C(N)=O)c(Nc3ccc(CCN4CCCC4)cc3)n2)C1` [Compound 56, (R)-3-Acryloylamino-6′-[4-(2-pyrrolidin-1-yl-ethyl)-phenylamino]-3,4,5,6-tetrahydro-2H-[1,2′]bipyridinyl-5′-carboxylic acid amide]: under 100 nM.

By IC50 is commonly meant the concentration that gives 50% inhibition.
